Source: patent US20070088043A1, “Novel HDAC inhibitors” (ORCHID RESEARCH LABORATORIES LIMITED., priority 2005, published 2007)

What was measured:
NCIH 460 cells = experiment: Anti-cancer screen (MTT), NCIH460; assay type: cell-based; conditions: Homo sapiens, NCI-H460, NCIH460 cells, 48 hours, MTT; for GI50: concentration to decrease % growth by 50%; for IC100: concentration to decrease % growth by 100%, read-out: NCIH460 TGI; for LC50: concentration to decrease % growth by 150%
Protocol: (§1) Experimental drugs are screened for anti-cancer activity in three cell lines for their GI50, TGI and LC50 values (using five concentrations for each compound). The cell lines are maintained in DMEM containing 10% fetal bovine serum. 96 well micro titer plates are inoculated with cells in 100 μL for 24 h at 37° C., 5% CO2, 95% air and 100% relative humidity. 5000 HCT 116 cells/well, 5000 NCIH 460 cells/well and 5000 U251 cells/well are plated. A separate plate with these cell lines is also inoculated to determine cell viability before the addition of the compounds (T0).
(§2) Following 24-hour incubation, experimental drugs are added to the 96 well plates. Each plate contains one of the above cell lines and the following in triplicate: five different concentrations (0.01, 0.1, 1, 10 and 100 μM) of four different compounds, appropriate dilutions of a cytotoxic standard and control (untreated) wells. Compounds are dissolved in DMSO to make 20 mM stock solutions on the day of drug addition and frozen at −20° C. Serial dilutions of these 20 mM stock solutions are made in complete growth medium such that 100 μL of these drug solutions in medium, of final concentrations equaling 0.01, 0.1, 1, 10 and 100 μM can be added to the cells in triplicate. Standard drugs whose anti-cancer activity has been well documented and which are regularly used are doxorubicin and SAHA.
(§3) For To measurement, 24 hours after seeding the cells, 10 μL of 3-(4,5-Dimethyl-2-thiazolyl)-2,5-diphenyl-2H-tetrazolium (MTT) solution per well is added and incubation carried out for 3 hours at 37° C., 5% CO2, 95% air and 100% relative humidity, protected from light. Cells incubated with compounds for 48 hours are treated similarly except with the addition of 20 μL MTT solution per well and a subsequent incubation under the same conditions. After 3 hours of MTT incubation, well contents are aspirated carefully followed by addition of 150 μL DMSO per well. Plates are agitated to ensure solution of the formazan crystals in DMSO and absorbance read at 570 nm. […]

HCT 116 cells = experiment: Anti-cancer screen (MTT), HCT116; assay type: cell-based; conditions: Homo sapiens, HCT-116, HCT116 cells, 48 hours, MTT; for GI50: concentration to decrease % growth by 50%; for IC100: concentration to decrease % growth by 100%, read-out: HCT116 TGI; for LC50: concentration to decrease % growth by 150%
Protocol: as §1, §2, §3

MDAMB231/U251 = experiment: Anti-cancer screen (MTT), MDAMB231/U251; assay type: cell-based; conditions: MDAMB231/U251 cells, 48 hours; for GI50: concentration to decrease % growth by 50%; for IC100: concentration to decrease % growth by 100%, read-out: MDAMB231/U251 TGI; for LC50: concentration to decrease % growth by 150%
Protocol: as §1, §2, §3

[1] = system: NCIH460, HCT116, MDAMB231/U251; experiment: Anti-cancer screen, mean GI50 over the cell lines; assay type: cell-based; conditions: in µM
Protocol: as §1, §2, §3

[2] = system: HDAC (Mouse Liver Extract); experiment: Histone Deacetylase (HDAC) Inhibition Assay using Boc-Lys (Ac)-AMC Substrate; assay type: biochemical; conditions: mouse liver enzyme, NA = No Activity; for HDAC Inhibition 1 μM / HDAC Inhibition 10 μM: in % (unit assumed)
From the text: HDAC Activitv Screening: Histone Deacetylase (HDAC) Inhibition Assay using Boc-Lys (Ac)-AMC Substrate:
Inhibition of HDAC has been implicated to modulate transcription and to induce apoptosis or differentiation in cancer cells. The fluorometric assay provides a fast and fluorescence based method that eliminates radioactivity, extractions or chromatography, as used in traditional assays. The assay based on two steps. First, the HDAC fluorometric substrate, which comprises an acetylated lysine side chain, is incubated with a sample containing HDAC activity (Mouse Liver Extract). Deacetylation of the substrate sensitizes the substrate, in the second step; treatment with the Trypsin stop solution produces a fluorophore that can be easily analyzed using fluorescence plate reader.
Assay was done in 96 well black microplate and total volume of the assay is 100 ul. Mouse liver enzyme is diluted 1:6 with HDAC buffer. Enzyme cocktail made of 10 ul of diluted enzyme and 30 ul of HDAC buffer. 40 ul of enzyme cocktail dispensed into each well. 10 ul of different concentrations of inhibitor added in to each well, except enzyme control well. Preincubated the plate at 30° C. for 5 minutes. The HDAC reaction is started by adding 50 ul of HDAC substrate (Boc-Lys (Ac)-AMC Substrate) solution. Incubated the plate at 30° C. for 30 minutes. Adding 100 ul of Trypsin stop solution stops the reaction. The plate is incubated again at 30° C. for 20-30 minutes. The release of AMC is monitored by measuring the fluorescence at excitation wavelength of 365 or 360 nm and emission wavelength of 440 or 460 nm. Buffer and substrate alone kept for blank subtraction. (Dennis Wegener et al, Anal. Biochem, 321, 2003, 202-208).

SMILES | GI50 (NCIH 460 cells) | IC100 (NCIH 460 cells) | LC50 (NCIH 460 cells) | GI50 (HCT 116 cells) | IC100 (HCT 116 cells) | LC50 (HCT 116 cells) | GI50 (MDAMB231/U251) | IC100 (MDAMB231/U251) | LC50 (MDAMB231/U251) | Mean GI50 [1] | HDAC Inhibition 1 μM [2] | HDAC Inhibition 10 μM [2] | IC50 [2]
CC(=O)SCCCCCC(=O)N1CCN(C(=O)CN2CCOCC2)CC1 [Example 2] | > 100 µM | > 100 µM | > 100 µM | > 100 µM | > 100 µM | > 100 µM | > 100 µM | > 100 µM | > 100 µM | >100 | 8.31 | 34.56 | 
O=C(CCCCCCC(=O)N1CCN(CC(=O)Nc2nc3ccccc3s2)CC1)NO [Example 29, 8-{4-[2-(1,3-Benzothiazol-2-ylamino)-2-oxoethyl]piperazin-1-yl}-N-hydroxy-8-oxo octanamide] | 0.8 µM | 93 µM | > 100 µM | 30 µM | > 100 µM | > 100 µM | 11 µM | 55 µM | 95 µM | 13.9 | 61.41 | 97.00 | 0.76 µM
CC(=O)ON(C(C)=O)C(=O)CCCCCCC(=O)N1CCN(CC(=O)Nc2nc3ccc(C)cc3s2)CC1 [Example 38] | 40 µM | > 100 µM | > 100 µM | 25 µM | 88 µM | > 100 µM | 0.4 µM | 30 µM | > 100 µM | >100 | 37.83 | 84.23 | 
CC(=O)NCCCCCC(=O)N1CCN(CC(=O)Nc2nc3ccccc3s2)CC1 [Example 43] | > 100 µM | > 100 µM | > 100 µM | 90 µM | > 100 µM | > 100 µM | > 100 µM | > 100 µM | > 100 µM | >100 | 2.61 | 5.24 | 
N[C@H](CO)C(=O)NCCCCCC(=O)N1CCN(CC(=O)Nc2nc3ccccc3s2)CC1 [Example 44] | > 100 µM | > 100 µM | > 100 µM | > 100 µM | > 100 µM | > 100 µM | > 100 µM | > 100 µM | > 100 µM | >100 | 5.45 | 1.79 | 
CC(=O)SCCCCC(=O)N1CCN(CC(=O)Nc2nc3ccccc3s2)CC1 [Example 8, 2-[4-(5-Thioacetylpentanoyl)piperazin-1-yl]-N-(1,3-benzothiazol-2-yl)acetamide] | 18 µM | > 100 µM | > 100 µM | 7 µM | 80 µM | > 100 µM | > 100 µM | > 100 µM | > 100 µM | 12.50 | 31.41 | 69.85 | 
CC(=O)SCCCCCC(=O)N1CCN(CC(=O)N2CCOCC2)CC1 [Example 19, 2-[4-(6-Thioacetylhexanoyl)piperazin-1-yl]-N-(morpholine)acetamide] | > 100 µM | > 100 µM | > 100 µM | > 100 µM | > 100 µM | > 100 µM | 57 µM | > 100 µM | > 100 µM | >100 | 18.82 | 51.25 | 
Cc1csc(NC(=O)CN2CCN(C(=O)CCCCCCC(=O)NO)CC2)n1 [Example 33, 8-{4-[2-(4-Methyl-1,3-thiazol-2-ylamino)-2-oxoethyl]piperazin-1-yl}-N-hydroxy-8-oxo octanamide] | 90 µM | > 100 µM | > 100 µM | 55 µM | > 100 µM | > 100 µM | 10 µM | 98 µM | > 100 µM | 51.67 | 50.09 | 92.38 | 
CC(=O)SCCCCC(=O)N1CCN(CC(=O)Nc2nc(C)cs2)CC1 [Example 4, 2-[4-(5-Thioacetylpentanoyl)piperazin-1-yl]-N-(4-methyl-1,3-thiazol-2-yl)acetamide] | 9 µM | 91 µM | > 100 µM | 60 µM | > 100 µM | > 100 µM | 45 µM | > 100 µM | > 100 µM | 38 | 15.82 | 50.88 | 
COC(=O)[C@H](CO)NC(=O)CCCCCCC(=O)N1CCN(CC(=O)Nc2nc3ccc(C)cc3s2)CC1 [Example 30] | 42.5 µM | 80.5 µM | > 100 µM | 8 µM | 51 µM | 79 µM | 35 µM | 56 µM | 82 µM | 28.50 |  | 4.65 | 
O=C(CN1CCN(C(=O)CCCCCS)CC1)Nc1nc2ccccc2s1 [Example 24, N-1,3-benzothiazol-2-yl-2-[4-(6-mercaptohexanoyl)piperazin-1-yl]acetamide] | 60 µM | > 100 µM | > 100 µM | 0.7 µM | > 100 µM | > 100 µM | 5 µM | 66 µM | > 100 µM | 21.90 | 4 | 27.4 | 
Cc1cccc2sc(NC(=O)CN3CCN(C(=O)CCCCCNO)CC3)nc12 [Example 27] | 8 µM | > 100 µM | > 100 µM | 8 µM | > 100 µM | > 100 µM | 28 µM | 80 µM | > 100 µM | 14.70 |  |  | 
COc1cccc2sc(NC(=O)CN3CCN(C(=O)CCCCCN(OCc4ccccc4)C(C)=O)CC3)nc12 [Example 28, N-4-methoxy-1,3-benzothiazol-2-yl-2-{6-[6 (N-acetyl-O-benzyl)hexanoyl]piperazin-1-yl}acetamide] | 21 µM | > 100 µM | > 100 µM | 5.5 µM | 58 µM | > 100 µM | 0.08 µM | 9 µM | > 100 µM | 8.86 |  |  | 
CSCC[C@@H](N)C(=O)NCCCCCC(=O)N1CCN(CC(=O)Nc2nc3ccccc3s2)CC1 [Example 42] | 56 µM | > 100 µM | > 100 µM | 26 µM | 78 µM | > 100 µM | 99.5 µM | > 100 µM | > 100 µM | 61 |  |  | 
